PubChem BioAssay AID218 (DTP/NCI, 2004)
Where “and” joins values, the source holds several entries; their conditions need not be identical. Identical values can stand only once.

System: C57BL/6 mice, Adenocarcinoma 755 sc, tumor weight T/C
Assay: NCI In Vivo Anticancer Drug Screen. Data for tumor model Adenocarcinoma 755 (subcutaneous) in C57BL/6 mice
Details: endpoint: mean tumor weight, higher = larger tumour
Protocol: The antitumor activity of compounds was measured in mice bearing transplantable tumors. Survival or tumor size were measured and the results are expressed as the measurement made in the treated group (T) divided by the measurement made in the vehicle treated control group (C). The tumor model used in this assay is Adenocarcinoma 755 (subcutaneous) in C57BL/6 mice

[1] = dose: 100.0 mg/kg/injection, schedule: Q01DX011 (ip), vehicle: saline
[2] = dose: 50.0 mg/kg/injection, schedule: Q01DX011 (ip), vehicle: saline
[3] = dose: 75.0 mg/kg/injection, schedule: Q02DX006 (ip), vehicle: other
[4] = dose: 25.0 mg/kg/injection, schedule: Q01DX011 (ip), vehicle: saline

## Nc1ncnc2[nH]ncc12
dose: 10.0 mg/kg/injection, schedule: Q02DX006 (ip), vehicle: other
  T/C: 28 % of control
dose: 15.0 mg/kg/injection, schedule: Q01DX011 (ip), vehicle: saline
  T/C: 7 % of control and 22 % of control
dose: 20.0 mg/kg/injection, schedule: Q01DX011 (ip), vehicle: saline
  T/C: 9 % of control
dose: 20.0 mg/kg/injection, schedule: Q02DX006 (ip), vehicle: other
  T/C: 16 % of control
dose: 40.0 mg/kg/injection, schedule: Q02DX006 (ip), vehicle: other
  T/C: 4 % of control

## CC(C)Sc1nc(N)nc2nc[nH]c12
[1]
  T/C: 7 % of control

## CCCCCCCCCCCNc1ncnc2[nH]ncc12
[2]
  T/C: 46 % of control
[1]
  T/C: 41 % of control

## NC(=S)N/N=C/c1cccc([N+](=O)[O-])c1
dose: 75.0 mg/kg/injection, schedule: Q02DX006 (ip), vehicle: saline
  T/C: 36 % of control
dose: 100.0 mg/kg/injection, schedule: Q02DX006 (ip), vehicle: saline
  T/C: 47 % of control

## O=[N+]([O-])c1ccc(CSc2ncnc3nc[nH]c23)cc1
[1]
  T/C: 4 % of control

## [I][Hg][CH2]C1OCCOC1[CH2][Hg][I] (stereo not given)
dose: 4.0 mg/kg/injection, schedule: Q01DX011 (ip), vehicle: carboxymethylcellulose (CMC)
  T/C: 84 % of control
dose: 8.0 mg/kg/injection, schedule: Q01DX011 (ip), vehicle: carboxymethylcellulose (CMC)
  T/C: 46 % of control
dose: 16.0 mg/kg/injection, schedule: Q01DX011 (ip), vehicle: carboxymethylcellulose (CMC)
  T/C: 34 % of control
dose: 32.0 mg/kg/injection, schedule: Q01DX011 (ip), vehicle: carboxymethylcellulose (CMC)
  T/C: 44 % of control

## Nc1nc2n[nH]nc2c(=O)[nH]1
dose: 37.5 mg/kg/injection, schedule: Q01DX007 (sc), vehicle: carboxymethylcellulose (CMC)
  T/C: 51 % of control and 66 % of control
dose: 37.5 mg/kg/injection, schedule: Q01DX011 (ip), vehicle: saline
  T/C: 10 % of control
dose: 37.5 mg/kg/injection, schedule: Q01DX011 (sc), vehicle: saline
  T/C: 25 % of control
dose: 50.0 mg/kg/injection, schedule: Q01DX011 (sc), vehicle: saline
  T/C: 16 % of control
dose: 50.0 mg/kg/injection, schedule: Q02DX006 (ip), vehicle: other
  T/C: 57 % of control
dose: 60.0 mg/kg/injection, schedule: Q02DX006 (ip), vehicle: other
  T/C: 64 % of control
dose: 75.0 mg/kg/injection, schedule: Q01DX011 (ip), vehicle: saline
  T/C: 6 % of control
dose: 75.0 mg/kg/injection, schedule: Q01DX011 (sc), vehicle: saline
  T/C: 4 % of control
dose: 100.0 mg/kg/injection, schedule: Q01DX007 (sc), vehicle: carboxymethylcellulose (CMC)
  T/C: 5 % of control and 14 % of control

## CCCCOC(=O)C1(N)CCCC1
dose: 28.0 mg/kg/injection, schedule: Q01DX011 (ip), vehicle: saline
  T/C: 52 % of control
dose: 56.0 mg/kg/injection, schedule: Q01DX011 (ip), vehicle: saline
  T/C: 24 % of control

## CCSCCC(N)C(=O)O (stereo not given)
[2]
  T/C: 113 % of control
[3]
  T/C: 67 % of control
[1]
  T/C: 67 % of control and 78 % of control
dose: 100.0 mg/kg/injection, schedule: Q02DX006 (ip), vehicle: other
  T/C: 65 % of control
dose: 150.0 mg/kg/injection, schedule: Q01DX011 (ip), vehicle: saline
  T/C: 72 % of control

## Nc1[nH]c(=S)nc2nc[nH]c12
dose: 5.0 mg/kg/injection, schedule: Q02DX006 (ip), vehicle: saline
  T/C: 46 % of control
dose: 6.0 mg/kg/injection, schedule: Q02DX006 (ip), vehicle: saline
  T/C: 33 % of control
dose: 8.0 mg/kg/injection, schedule: Q02DX006 (ip), vehicle: saline
  T/C: 25 % of control

## NNc1ncnc2nc[nH]c12
dose: 30.0 mg/kg/injection, schedule: Q01DX011 (ip), vehicle: saline
  T/C: 67 % of control
dose: 60.0 mg/kg/injection, schedule: Q01DX011 (ip), vehicle: saline
  T/C: 34 % of control

## Cn1cnc([N+](=O)[O-])c1Sc1ccccc1
[4]
  T/C: 84 % of control
[2]
  T/C: 47 % of control
[1]
  T/C: 53 % of control

## Clc1ncnc2c1ncn2Cc1ccco1
dose: 12.5 mg/kg/injection, schedule: Q01DX011 (ip), vehicle: saline
  T/C: 63 % of control
[4]
  T/C: 62 % of control
[2]
  T/C: 86 % of control
[1]
  T/C: 51 % of control

## S=c1nc[nH]c2n[nH]nc12
dose: 30.0 mg/kg/injection, schedule: Q02DX006 (ip), vehicle: other
  T/C: 70 % of control
[3]
  T/C: 14 % of control

## Cn1c(N)nc2nc[nH]c2c1=S
dose: 1.0 mg/kg/injection, schedule: Q01DX008 (iv), vehicle: saline
  T/C: 169 % of control
dose: 2.0 mg/kg/injection, schedule: Q01DX008 (iv), vehicle: saline
  T/C: 173 % of control
dose: 4.0 mg/kg/injection, schedule: Q01DX008 (iv), vehicle: saline
  T/C: 79 % of control
dose: 32.0 mg/kg/injection, schedule: Q01DX008 (iv), vehicle: saline
  T/C: 67 % of control
dose: 64.0 mg/kg/injection, schedule: Q01DX008 (iv), vehicle: saline
  T/C: 65 % of control
